According to ChEMBL document CHEMBL5614416, “Discovery of novel thiophene[3,2-d]pyrimidine-based tubulin inhibitors with enhanced antitumor efficacy for combined use with anti-pd-l1 immunotherapy in melanoma” (Eur J Med Chem, 2024):
Activity calls are given as the source filed them. The rule behind the calls is not given here.

Legend:
[1] = tested on: MCF7; experiment: Antiproliferative activity against human MCF7 cells incubated for 48 hrs by MTT assay; type: functional, cell-based; conditions: MCF7, 48 h
[2] = tested on: HepG2; experiment: Antiproliferative activity against human HepG2 cells incubated for 48 hrs by MTT assay; type: functional, cell-based; conditions: HepG2, 48 h
[3] = tested on: B16-F10; experiment: Induction of cell cycle arrest in mouse B16-F10 cells assessed as accumulation of cells at G2 phase at 0.5 nM incubated for 12 hrs by flow cytometry (reference value: 13.6 %); type: functional
[4] = tested on: B16-F10; experiment: Induction of cell cycle arrest in mouse B16-F10 cells assessed as accumulation of cells at S phase at 1 nM incubated for 12 hrs by flow cytometry (reference value: 30.5 %); type: functional
[5] = tested on: B16-F10; experiment: Induction of cell cycle arrest in mouse B16-F10 cells assessed as accumulation of cells at G2 phase at 1 nM incubated for 12 hrs by flow cytometry (reference value: 13.6 %); type: functional
[6] = tested on: B16-F10; experiment: Induction of cell cycle arrest in mouse B16-F10 cells assessed as accumulation of cells at G1 phase at 2 nM incubated for 12 hrs by flow cytometry (reference value: 52.0 %); type: functional
[7] = tested on: B16-F10; experiment: Induction of apoptosis in mouse B16-F10 cells assessed as early apoptotic cells at 0.5 nM incubated for 12 hrs by Annexin V-FITC/PI staining based flow cytometry (reference value: 3.81 %); type: functional
[8] = tested on: B16-F10; experiment: Induction of apoptosis in mouse B16-F10 cells assessed as viable cells at 1 nM incubated for 12 hrs by Annexin V-FITC/PI staining based flow cytometry (reference value: 93.6 %); type: functional; conditions: read-out: Activity
[9] = tested on: B16-F10; experiment: Induction of apoptosis in mouse B16-F10 cells assessed as late apoptotic cells at 1 nM incubated for 12 hrs by Annexin V-FITC/PI staining based flow cytometry (reference value: 2.39 %); type: functional
[10] = tested on: B16-F10; experiment: Induction of apoptosis in mouse B16-F10 cells assessed as necrotic cells at 1 nM incubated for 12 hrs by Annexin V-FITC/PI staining based flow cytometry (reference value: 0.25 %); type: functional
[11] = tested on: B16-F10; experiment: Induction of apoptosis in mouse B16-F10 cells assessed as viable cells at 2 nM incubated for 12 hrs by Annexin V-FITC/PI staining based flow cytometry (reference value: 93.6 %); type: functional; conditions: read-out: Activity
[12] = tested on: B16-F10; experiment: Induction of apoptosis in mouse B16-F10 cells assessed as late apoptotic cells at 2 nM incubated for 12 hrs by Annexin V-FITC/PI staining based flow cytometry (reference value: 2.39 %); type: functional
[13] = tested on: B16-F10; experiment: Inhibition of cell migration in mouse B16-F10 cells assessed as migration rate at 1 nM incubated for 24 hrs by wound healing assay (reference value: 61.1 %); type: functional; design: scale not given: the % may be the effect or the level left
[14] = tested on: MCF7; experiment: Inhibition of cell migration in human MCF7 cells assessed as migration rate at 1 nM incubated for 24 hrs by wound healing assay (reference value: 18.1 %); type: functional; design: scale not given: the % may be the effect or the level left
[15] = tested on: MCF7; experiment: Inhibition of cell migration in human MCF7 cells assessed as migration rate at 4 nM incubated for 24 hrs by wound healing assay (reference value: 18.1 %); type: functional; design: scale not given: the % may be the effect or the level left
[16] = tested on: B16-F10; experiment: Inhibition of cell migration in mouse B16-F10 cells assessed as reduction in wound closure incubated for 24 hrs by wound healing assay; type: functional, cell-based
[17] = tested on: B16-F10; experiment: Induction of apoptosis in mouse B16-F10 cells assessed as decrease in Bcl-2 level upto 30 nM incubated for 24 hrs by Western blot analysis; type: functional, cell-based
[18] = tested on: MCF7; experiment: Induction of apoptosis in human MCF7 cells assessed as increase in Bax level upto 30 nM incubated for 24 hrs by Western blot analysis; type: functional, cell-based
[19] = tested on: B16-F10; experiment: Antitumor activity against mouse B16-F10 cells xenografted in C57 mouse at 7 mg/kg, ip qd for 12 days relative to control; type: functional; conditions: B16-F10, 288 h, time 12 day, read-out: TGI
[20] = tested on: B16-F10; experiment: Antitumor activity against mouse B16-F10 cells xenografted in C57 mouse at 3.5 mg/kg, ip qd for 12 days in presence of NP-19 relative to control; type: functional; conditions: B16-F10, 288 h, time 12 day, read-out: TGI
[21] = Toxicity in C57 mouse xenografted with mouse B16-F10 cells assessed as morphological abnormality in kidney at 3.5 mg/kg, ip qd for 12 days in presence of NP-19 by H and E staining based analysis; type: organism-based; conditions: in vivo, 288 h, time 12 day
[22] = Toxicity in C57 mouse xenografted with mouse B16-F10 cells assessed as morphological abnormality in liver at 7 mg/kg, ip qd for 12 days by H and E staining based analysis; type: organism-based; conditions: in vivo, 288 h, time 12 day
[23] = Toxicity in C57 mouse xenografted with mouse B16-F10 cells assessed as WBC count at 7 mg/kg, ip qd for 12 days by biochemical analysis (reference value: 8.240 to 8.340 10^9/L); type: organism-based; conditions: in vivo, 288 h, time 12 day
[24] = Toxicity in C57 mouse xenografted with mouse B16-F10 cells assessed as lymphocytes level at 7 mg/kg, ip qd for 12 days by biochemical analysis (reference value: 7.300 to 65.500 %); type: organism-based; conditions: in vivo, 288 h, time 12 day
[25] = Toxicity in C57 mouse xenografted with mouse B16-F10 cells assessed as RDW-CV at 7 mg/kg, ip qd for 12 days by biochemical analysis (reference value: 14.300 to 14.300); type: organism-based; conditions: in vivo, 288 h, time 12 day
[26] = Toxicity in C57 mouse xenografted with mouse B16-F10 cells assessed as PCT level at 7 mg/kg, ip qd for 12 days by biochemical analysis (reference value: 0.425 to 5.300); type: organism-based; conditions: in vivo, 288 h, time 12 day
[27] = Toxicity in C57 mouse xenografted with mouse B16-F10 cells assessed as WBC count at 3.5 mg/kg, ip qd for 12 days in presence of NP-19 by biochemical analysis (reference value: 8.240 to 8.340 10^9/L); type: organism-based; conditions: in vivo, 288 h, time 12 day
[28] = Toxicity in C57 mouse xenografted with mouse B16-F10 cells assessed as MCV level at 3.5 mg/kg, ip qd for 12 days in presence of NP-19 by biochemical analysis (reference value: 15.800 to 48.900 fL); type: organism-based; conditions: in vivo, 288 h, time 12 day
[29] = Toxicity in C57 mouse xenografted with mouse B16-F10 cells assessed as neutrophil count at 3.5 mg/kg, ip qd for 12 days in presence of NP-19 by biochemical analysis (reference value: 2.130 to 5.46 10^9/L); type: organism-based; conditions: in vivo, 288 h, time 12 day
[30] = Toxicity in C57 mouse xenografted with mouse B16-F10 cells assessed as basophil count at 3.5 mg/kg, ip qd for 12 days in presence of NP-19 by biochemical analysis (reference value: 0.060 to 25.500 10^9/L); type: organism-based; conditions: in vivo, 288 h, time 12 day
[31] = Toxicity in C57 mouse xenografted with mouse B16-F10 cells assessed as lymphocytes level at 3.5 mg/kg, ip qd for 12 days in presence of NP-19 by biochemical analysis (reference value: 7.300 to 65.500 %); type: organism-based; conditions: in vivo, 288 h, time 12 day
[32] = Toxicity in C57 mouse xenografted with mouse B16-F10 cells assessed as MPV level at 3.5 mg/kg, ip qd for 12 days in presence of NP-19 by biochemical analysis (reference value: 6.200 to 15.000); type: organism-based; conditions: in vivo, 288 h, time 12 day
[33] = Toxicity in C57 mouse xenografted with mouse B16-F10 cells assessed as PCT level at 3.5 mg/kg, ip qd for 12 days in presence of NP-19 by biochemical analysis (reference value: 0.425 to 5.300); type: organism-based; conditions: in vivo, 288 h, time 12 day

Question: For `Cc1nc(N(C)c2ccc3c(ccn3C)c2)c2sccc2n1`, which IC50 [1] is on record?
Answer: 9.53 nM

Question: And the IC50 [2]?
Answer: 9.37 nM

Question: What about the Activity [3] of the same compound?
Answer: 58.9%

Question: And the Activity [4]?
Answer: 22.3%

Question: And the Activity [5]?
Answer: 61.9%

Question: And the Activity [6]?
Answer: 5.24%

Question: And the Activity [7]?
Answer: 11.2%

Question: What about the viability at 0.001 µM [8] of the same compound?
Answer: 77.1%

Question: And the Activity [9]?
Answer: 7.92%

Question: What about the Activity [10] of the same compound?
Answer: 4.4%

Question: And the viability at 0.002 µM [11]?
Answer: 75%

Question: What about the Activity [12] of the same compound?
Answer: 8.65%

Question: What about the Activity [13] of the same compound?
Answer: 57.5%

Question: And the Activity [14]?
Answer: 15.7%

Question: What about the Activity [15] of the same compound?
Answer: 3.23%

Question: And the inhibition [16]?
Answer: Dose-Dependent Effect

Question: What about the Activity [17] of the same compound?
Answer: Active

Question: What about the Activity [18] of the same compound?
Answer: Active

Question: What about the inhibition in vivo at 7 mg/kg [19] of the same compound?
Answer: 63.3%

Question: What about the inhibition in vivo at 3.5 mg/kg [20] of the same compound?
Answer: 75.7%

Question: What about the Activity [21] of the same compound?
Answer: Non-Toxic

Question: And the Activity [22]?
Answer: Non-Toxic

Question: What about the Activity [23] of the same compound?
Answer: 2.51 10^9/L

Question: And the Activity [24]?
Answer: 2.2%

Question: And the Activity [25]?
Answer: 14.2

Question: And the Activity [26]?
Answer: 0.329

Question: And the Activity [27]?
Answer: 4.22 10^9/L

Question: What about the Activity [28] of the same compound?
Answer: 15.7 fL

Question: What about the Activity [29] of the same compound?
Answer: 1.38 10^9/L

Question: And the Activity [30]?
Answer: 0.01 10^9/L

Question: What about the Activity [31] of the same compound?
Answer: 2.4%

Question: And the Activity [32]?
Answer: 6

Question: And the Activity [33]?
Answer: 0.179
